According to publication PMC10823475, “Design, Synthesis, and Evaluation of Inhibitors of Hedgehog Acyltransferase” (Journal of Medicinal Chemistry, 2024):

Legend:
[1] = test system: HH signaling (HEK293a SHH+ conditioned media on SHH-Light2 cells); experiment: Light2 dual-luciferase cell-based HH signaling assay (Firefly); conditions: Firefly luciferase, Light2 cells; read-out: HH signaling inhibition EC50 (CI95)
Method: Subsequently, the effect of analogues on HH signaling was investigated using a cellular luciferase reporter assay. Light2 cells derived from NIH3T3 cells constitutively express Renilla luciferase as an internal control for cell density alongside Firefly luciferase under the control of a HH-responsive Gli promoter.[43] HEK293a SHH^+ cells were incubated with varying inhibitor concentrations and SHH-containing conditioned media transferred to the NIH3T3-Light2 cells to mimic paracrine signaling[30],[35] (Figure 6A).
The Light2 cell-based signaling assay has been described previously.[35] Briefly, HEK293a SHH^+ cells were plated at 120,000 cells/well of a 12-well plate in a volume of 1 mL/well and cultured as described above. After 24 h, cells were washed with PBS, followed by addition of 1 mL of media containing 0.2% DMSO or varying inhibitor concentrations in DMSO (0.041–30 μM final). Additionally, SHH-Light2 cells were plated at 20,000 cells/well of a 96-well plate in 50 μL media. After another 24 h, 300 μL of the conditioned media were collected from each well of the treated HEK293a SHH^+ cells, centrifuged at 1000g for 10 min to remove detached cells and split into three wells of the SHH-Light2 cells (100 μL/well; 150 μL final volume in each well). The treated Light2 cells were cultured for another 48 h and subsequently washed with PBS. Firefly and Renilla luciferase activity was measured using the Dual-Luciferase reporter system (Promega Corporation, USA). Then 20 μL of 1× passive lysis buffer were added to each well. After 30 min at RT, 5 μL of each lysate were transferred to a white opaque 96-well plate. Then 20 μL/well of luciferase assay reagent II was added and the luminescence immediately recorded using a SpectraMax i3x plate reader (Molecular Devices LLC). Subsequently, 20 μL/well of 1× Stop&Glo substrate in Stop&Glo buffer was added and the luminescence immediately recorded for a second time. Data was evaluated using a “sigmoidal dose response (variable slope)” model in GraphPad Prism 5 (GraphPad Software, Inc.). The luminescence signal of the Firefly luciferase was normalized to the DMSO vehicle (100%) and the unconditioned media (0%) controls.

purified HHAT = biological target: T1, purified HHAT (Homo sapiens, UniProt Q5VTY9); experiment: Acyl-cLIP assay, inhibition of purified HHAT; type: biochemical; conditions: for fold increase in potency compared to racemate: enantiomer vs racemate (29 vs 21, 30 vs 24, 43 vs 39); for LLEAcyl-cLIP: from Acyl-cLIP IC50 and clogDpH7.4; for IC50: purified HHAT, read-out: Acyl-cLIP Assay IC50 (CI95)
T1 construct: made in house
T1 sequence (Q5VTY9 whole entry): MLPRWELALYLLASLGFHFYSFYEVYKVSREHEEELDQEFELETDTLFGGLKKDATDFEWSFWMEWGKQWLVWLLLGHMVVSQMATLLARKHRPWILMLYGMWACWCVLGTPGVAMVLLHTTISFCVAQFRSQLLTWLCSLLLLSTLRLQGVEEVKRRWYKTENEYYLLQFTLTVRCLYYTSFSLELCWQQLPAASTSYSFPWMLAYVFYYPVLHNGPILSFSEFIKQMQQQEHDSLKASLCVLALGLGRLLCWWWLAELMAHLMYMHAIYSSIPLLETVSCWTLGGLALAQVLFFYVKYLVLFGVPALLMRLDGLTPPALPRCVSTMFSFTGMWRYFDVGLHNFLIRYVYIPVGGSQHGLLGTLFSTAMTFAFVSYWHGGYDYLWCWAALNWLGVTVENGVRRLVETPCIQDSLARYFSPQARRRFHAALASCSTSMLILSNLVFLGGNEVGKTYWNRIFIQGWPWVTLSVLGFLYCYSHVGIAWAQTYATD
Method: The inhibitory potency of all 50 compounds against purified HHAT was quantified using the acylation-coupled lipophilic induction of polarization (acyl-cLIP) assay recently developed in our lab, a universally applicable assay for high-throughput analysis of protein–lipid transferases and hydrolases.[31],[40] In brief, in this assay a fluorescently labeled peptide based on the N-terminal sequence of SHH is incubated with N-dodecyl β-D-maltoside (DDM) solubilized purified HHAT, palmitoyl-CoA, and HHAT inhibitors. Binding of the lipidated peptide product to the DDM micelle results in decreased tumbling rate and an increase in polarization of fluorescence emission, enabling facile quantification of HHAT activity. Initially, % HHAT inhibition was determined at 50 μM and 25 μM for all analogues. […] HHAT is a 12-pass TM protein,[14] and we considered whether lipophilicity might bias inhibition; pIC50 values were compared to calculated log D, which indicated no significant correlation (SI, Table S1 and Figure S2). We concluded that lipophilicity is not a general driver of HHAT inhibitory potency.
The acyl-cLIP assay has been described previously.[40] Briefly, SHH-FAM peptide was diluted in buffer A (100 mM MES, 20 mM NaCl, 1 mM DTT, 1 mM TCEP, 0.1% BSA, pH 6.5) to a concentration of 2 μM. Palmitoyl-CoA (Sigma-Aldrich) was diluted in buffer A to 7.5 μM and recombinant HHAT (obtained by following the published protocol[14]) in buffer B (20 mM HEPES, 350 mM NaCl, 1% DDM, 5% glycerol, pH 7.3) diluted to 44 μg/mL. 1.5 μL of a 50 mM inhibitor DMSO stock was diluted with 18.5 μL of DMSO and further serial diluted (1:1). For each condition, 6 μL of the HHAT working stock and […] of the SHH-peptide working stock were mixed with 3 μL of the corresponding inhibitor concentration or DMSO vehicle. Twelve μL/well of this mixture was split into four wells of a black 384 well plate. To start the reaction, 8 μL of the Pal-CoA working stock were added to each well and fluorescence anisotropy and the total fluorescence recorded on an EnVision Xcite 2104 (PerkinElmer) over 30 min (emission filter 1 = FITC FP P-pol 535; emission filter 2 = FITC S-pol 535; excitation filter: FITC FP 480; measurement height = 6.5 mm; detector gain = 0; high concentration gain). Initial rate constants were determined by linear regression and normalized to DMSO control and samples with buffer B instead of HHAT. IC50 values were extracted from the corresponding dose response curves using a “sigmoidal dose response (variable slope)” model in GraphPad Prism 5 (GraphPad Software, Inc.).

HEK293a SHH+ cells = experiment: MTS assay, cytotoxicity (72 h); type: cell-based; conditions: for decrease in cell viability / cell survival: 12.5 μM; for CC50: 72 h, read-out: MTS Assay (HEK293a SHH+) CC50 (CI95)
Method: (§1) The survival of HEK293a SHH^+ cells is independent of HH signaling,[35] therefore, the cytotoxicity of analogues was tested using the MTS assay to investigate off-target toxicity. In this assay, HEK293a SHH^+ cells were treated with DMSO vehicle or varying concentrations of analogues for 72 h. Subsequently, a mixture of 1-methoxy phenazine methosulfate (PMS) and [3-(4,5-dimethylthiazol-2-yl)-5-(3-carboxymethoxyphenyl)-2-(4-sulfophenyl)-2H-tetrazolium] (MTS) was added to enable quantification of cell number via colorimetric analysis. […] Compounds 3, 17, 19, 32, 34, 38, and 45, which all contain a 2-((2-methylbutyl)amino)acetyl, were toxic to HEK293a SHH^+ cells, as were ureas 26, 40, and 41.
(§2) HEK293a SHH^+ cells were plated at 5000 cells/well in a 96-well plate (Nunc) using a volume of 50 μL/well and cultured for 24 h as described. Cells were treated with 100 μL/well of either DMSO vehicle, Puromycin (2 μg/mL), or stated analogues (0.14–100 μM final) in DMEM supplemented with 10% FBS. After 72 h, 20 μL/well of a mixture of 1-methoxy phenazine methosulfate (PMS) and [3-(4,5-dimethylthiazol-2-yl)-5-(3-carboxymethoxyphenyl)-2-(4-sulfophenyl)-2H-tetrazolium] (MTS) at a ratio of MTS/PMS = 2/0.92 mg/mL in PBS was added and the plates were incubated for 3 h at 37 °C. Subsequently, the absorption at 490 nm was recorded using an EnVision Xcite 2104 (PerkinElmer), and the response was normalized to vehicle control and Puromycin treated samples. Dose response curves were fitted to a “sigmoidal dose response (variable slope)” model using GraphPad Prism 5 (GraphPad Software, Inc.).

[2] = MTS assay, cytotoxicity (72 h); type: cell-based; conditions: human, HEK293a SHH+ cells, 72 h; for CC50 at 72 h: read-out: MTS Assay (HEK293a SHH+) CC50 (CI95)
Method: as §1, §2

inhibition at 25 µM (purified HHAT) [%] | inhibition at 50 µM (purified HHAT) [%] | LLEAcyl-cLIP (purified HHAT) | IC50 (purified HHAT) [µM] | Compound | EC50 [1] [nM] | fold increase in potency compared to racemate (purified HHAT) [fold] | decrease in cell viability / cell survival (HEK293a SHH+ cells) [%] | CC50 (HEK293a SHH+ cells) [µM] | CC50 at 72 h [2] [µM] | viability at 72 h, 12.5 µM [2] [%] | viability at 72 h, 25 µM [2] [%] | toxicity to HEK293a SHH+ cells (HEK293a SHH+ cells)
68 ± 5 | 83 ± 1 | 2.94 | 6.55 | C=CCNCC(=O)N1CCc2sccc2C1c1ccccc1 (stereo not shown) [Compound 12, 2-(Allylamino)-1-(4-phenyl-6,7-dihydrothieno[3,2-c]pyridin-5(4H)-yl)ethan-1-one] | 2920 | – | < 30 | – | > 50 | 86 ± 2 | 73 ± 2 | –
81 ± 1 | 91 ± 1 | 3.84 | 7.98 | CCC(C)CNCC(=O)N1CCc2sccc2C1c1ccccn1 (stereo not shown) [Compound 19, 2-(2-Methylbutylamino)-1-[4-(pyridin-2-yl)-6,7-dihydro-4H-thieno[3,2-c]pyridin-5-yl]ethanone] | 580 | – | < 30 | – | 20.3 | 87 ± 1 | 75 ± 4 | toxic
66 ± 2 | 79 ± 2 | 3.00 | 8.09 | CCC(C)CNCC(=O)N1CCc2sccc2C1c1ccccc1OC (stereo not shown) [Compound 32, 1-(4-(2-Methoxyphenyl)-6,7-dihydrothieno[3,2-c]pyridin-5(4H)-yl)-2-((2-methylbutyl)amino)ethan-1-one] | > 30000 | – | – | – | 7.6 | 55 ± 3 | 42 ± 2 | toxic

Continued, molecule first:

Compound | inhibition at 25 µM (purified HHAT) [%] | inhibition at 50 µM (purified HHAT) [%] | LLEAcyl-cLIP (purified HHAT) | IC50 (purified HHAT) [µM] | EC50 [1] [nM] | fold increase in potency compared to racemate (purified HHAT) [fold] | decrease in cell viability / cell survival (HEK293a SHH+ cells) [%] | CC50 (HEK293a SHH+ cells) [µM] | CC50 at 72 h [2] [µM] | viability at 72 h, 12.5 µM [2] [%] | viability at 72 h, 25 µM [2] [%] | toxicity to HEK293a SHH+ cells (HEK293a SHH+ cells)
CC(C)CNCC(=O)N1CCc2ccccc2C1c1ccccc1 (stereo in doubt) [Compound 43, (R)-2-((2-Methylpropyl)amino)-1-(1-phenyl-3,4-dihydroisoquinolin-2(1H)-yl)ethan-1-one] | 88 ± 3 | 93 ± 3 | 3.64 | 2.77 | 800 | 2 | < 30 | > 100 | > 50 | 98 ± 2 | 97 ± 3 | –
CC[C@H](C)CNCC(=O)N1CCc2sccc2C1c1cccc(C)n1 (stereo partly shown) [Compound 23] | 87 ± 7 | 86 ± 8 | 4.04 | 3.71 | 1580 | – | – | > 100 | > 50 | 87 ± 2 | 74 ± 3 | –
CC(=O)N1CCc2sccc2[C@@H]1c1cccc(C)n1 [Compound 29, (R)-1-(4-(6-Methylpyridin-2-yl)-6,7-dihydrothieno[3,2-c]pyridin-5(4H)-yl)ethan-1-one] | 76 ± 2 | 86 ± 2 | 3.10 | 7.45 | 1290 | 2 | < 30 | > 100 | > 50 | 92 ± 3 | 88 ± 5 | –
CC(C)CNCC(=O)N1CCc2ccccc2C1c1ccccc1 (stereo not shown) [Compound 39, 2-((2-Methylpropyl)amino)-1-(1-phenyl-3,4-dihydroisoquinolin-2(1H)-yl)ethan-1-one] | 81 ± 2 | 86 ± 1 | 3.30 | 6.02 | 2590 | – | < 30 | > 100 | > 50 | 94 ± 3 | 92 ± 4 | –
CCC(C)CNCC(=O)N1CCc2ccc(Cl)cc2C1c1ccccc1 (stereo not shown) [Compound 45, 1-(7-Chloro-1-phenyl-3,4-dihydroisoquinolin-2(1H)-yl)-2-((2-methylbutyl)amino)ethan-1-one] | 89 ± 3 | 93 ± 3 | 2.43 | 4.22 | 6440 | – | < 30 | – | 15.4 | 70 ± 3 | 14 ± 4 | toxic
